Legend:
[1] = test system: TNFα secretion in LPS-stimulated human monocyte cell lines (THP-1); assay: Suppression of TNFα secretion in LPS-stimulated THP-1 cells (ELISA); assay type: cell-based
Protocol: To identify the efficacy of the inventive compounds on suppressing a TNFα secretion in immune responses, suppression of TNFα production, which was achieved by a treatment with compounds 374, 461, 500, 530 and 532 according to the present invention in LPS-stimulated human monocyte cell lines (THP-1), was quantified by means of an enzyme immuno-assay (ELISA).
Specifically, the THP-1 cell lines (ATCC) were cultured in an RPMI-1640 medium comprising 10% FBS. The cell lines were divided into a 24 well plate at a ratio of 1×10^5 cells per well, then treated with 100 ng/mL PMA (phorbol 12-myristate 13-acetate) for 24 hours, and then differentiated into macrophage. Then, the culture medium was replaced with a new one, then treated with a test drug for 24 hours, and then treated again with 10 ng/mL LPS (E.Coli, O55:B5) for four hours for stimulation. After that, supernatant was taken and used to measure the amount of TNFα secreted from the cells by means of a Human TNFα Instant ELISA kit (eBioscience, BMS223INST) according to a protocol provided by a manufacturer.

[2] = test system: reactive T cells; assay: Treg suppression assay: proliferation of reactive T cells (eFluor670 dilution, flow cytometry); assay type: cell-based, mouse; conditions: Teff:Treg 2:1, three days; concentration not specified
Protocol: To identify the efficacy of the inventive compounds on suppressing the proliferation of reactive T cells in immune responses, compounds 255, 280, 374, 416 and 476 according to the present invention were cultured together with reactive T cells and regulatory T cells […], and then the suppressive efficacy of regulatory T cells was measured.
Specifically, a six-week old C57BL6 male mice were supplied from Central Lab Animal Inc., then acclimated for one week, and then used in an experiment. A spleen was isolated from the mouse, and then treated with collagenase D (Roche, 11088866001), such that splenocytes were isolated therefrom. […] were isolated by means of a CD4+CD25+ regulatory T cell isolation kit (Miltenyi Biotec, 130-091-041) according to a protocol provided by a manufacturer. Teff cells were cultured at 37° C. for ten minutes by means of eFluor®670 (Cell proliferation Dye eFluor®670, eBioscience), such that cell membranes were stained. Teff and Treg were divided into a 96 well plate at a ratio of 2:1, and then T cells were activated for three days by means of an anti-CD3E and anti-CD28 mAb magnetic bead (T cell activation/expansion kit, Miltenyi Biotec, 130-093627), such that Treg suppression assay was performed. A test drug was simultaneously treated for three days, during which the assay was performed. The divided amount of eFluor®670 labeled on the Teff cell membranes was measured, such that a degree of proliferation of T cells was evaluated accordingly. An eFluor®670-dilution plot was measured by means of a flow cytometer (FACS LSR Fortessa, BD bioscience). The suppressive ability on T cells proliferation was calculated by means of a following equation.

[3] = test system: CTLA4 (cytotoxic T-lymphocyte-associated protein 4) in the regulatory T cells; assay: CTLA4 expression in regulatory T cells (iTreg) by flow cytometry; assay type: cell-based, mouse; conditions: for level of CTLA4 expression in the T cells (function of regulatory T cells): iTreg, six days treatment, concentration not specified
Protocol: To identify if the compounds according to the present invention regulate a function of regulatory T cells in immune responses, compounds 255, 280, 374, 416 and 476 were treated, and then an expression level of an immune checkpoint receptor CTLA4 (cytotoxic T-lymphocyte-associated protein 4) in the regulatory T cells was measured by means of flow cytometry.
Specifically, a six-week old C57BL6 male mice were supplied from Central Lab Animal Inc., then acclimated for one week, and then used in an experiment. A spleen was isolated from the mouse, and then treated with collagenase D (Roche, 11088866001), such that splenocytes were isolated therefrom. CD4+CD25-T cells were isolated by means of a CD4+CD25+ regulatory T cell isolation kit (Miltenyi Biotec, 130-091-041), and then CD4+CD25-T cells (at a ratio of 5×10^5 cells/well) were treated with an anti-CD3E/anti-CD28 mAb bead (T cell activation/expansion kit, Miltenyi Biotec, 130-093627) and a mouse recombinant TGF-β2 for six days, such that they were differentiated into iTreg. A test drug was simultaneously treated for six days, during which the cells were differentiated into iTreg. After that, the cells were incubated by means of anti-CD4/anti-CD25 mAb (eBioscience, 25-0042-82, 17-0251-82) at 4° C. for 20 minutes, and then labeling was performed. For intracytoplasmic staining, permeabilization was performed by means of Fix/permeabilization buffer (eBioscience, 00-5523-00), then labeling was performed by means of anti-FOXP3-Alexafluor488 (eBioscience, 53-5773-82) and anti-CTLA4-PE (eBioscience, 12-1522-82), and then flow cytometry was performed by means of FACS LSR Fortessa (BD bioscience).

[4] = test system: experimental autoimmune uveitis (EAU) mouse; assay: Clinical grading of uveitis in the EAU mouse (fundoscopy); assay type: in vivo
[5] = test system: experimental autoimmune uveitis (EAU) mouse; assay: H&E staining of histopathological lesions in the retina of the EAU mouse; assay type: in vivo; conditions: 0.3% eye drop twice a day, Day 21
[6] = test system: experimental autoimmune uveitis (EAU) mouse; assay: Immunofluorescent staining of immunomarkers in the retina of the EAU mouse; assay type: in vivo
[7] = test system: experimental autoimmune uveitis (EAU) mouse; assay: ELISA of IFN-γ and IL-17A from spleen mononuclear cells of the EAU mouse; assay type: in vivo
[8] = test system: experimental autoimmune uveitis (EAU) mouse; assay: Real-time PCR of HDAC6 and inflammatory cytokines in the retina of the EAU mouse; assay type: in vivo; conditions: for expression level of HDAC6 / expression level of IL-1β / expression level of IL-17 / expression level of INF-γ / expression level of TNF-α: retina
[9] = test system: experimental autoimmune uveitis (EAU) mouse; assay: FACS of immune cells in retina and draining lymph node of the EAU mouse; assay type: in vivo
[10] = THP-1, LPS, on increasing concentration of compound treatment from 100 nM to 300 nM
[11] = in comparison with LPS-induced control group, THP-1, concentration not specified
[12] = THP-1, LPS, at both 100 nM and 300 nM
[13] = EAU mouse, eye drop administration group
[14] = spleen MNC stimulated with IRBP peptide 72 hours, eye drop administration group
[15] = i.p. administration group (10 or 30 mg/kg once a day)
[16] = lymph node tissues, eye drop administration group
[17] = lymph nodes, i.p. administration group
[18] = retina tissues, eye drop administration group

## O=C(NO)c1ccc(CN(C(=O)N2CCOCC2)c2cccc(C(F)(F)F)c2)c(F)c1 [Compound 532, N-(2-fluoro-4-(hydroxycarbamoyl)benzyl)-N-(3-(trifluoromethyl)phenyl)morpholine-4-carboxamide]
[1]; [10]
  level of TNFα secretion: drastically decreased
[1]; [11]
  level of TNFα secretion: excellent effect

## CCN1CCN(C(=O)N(Cc2ccc(C(=O)NO)cc2)c2cccc(C(F)(F)F)c2)CC1 [Compound 461, 4-ethyl-N-(4-(hydroxycarbamoyl)benzyl)-N-(3-(trifluoromethyl)phenyl)piperazine-1-carboxamide]
[1]; [12]
  level of TNFα secretion: remarkably decreased down to a level at which no inflammatory response was induced by means of the LPS
[1]; [11]
  level of TNFα secretion: excellent effect

## O=C(NO)c1ccc(CN(C(=O)N2CCOCC2)c2cccc(CF)c2)cc1 [Compound 500, N-(3-(fluoromethyl)phenyl)-N-(4-(hydroxycarbamoyl)benzyl)morpholine-4-carboxamide]
[1]; [12]
  level of TNFα secretion: remarkably decreased down to a level at which no inflammatory response was induced by means of the LPS
[1]; [11]
  level of TNFα secretion: excellent effect

## O=C(NO)c1ccc(CN(C(=O)N2CC(F)(F)C2)c2cccc(C(F)(F)F)c2)cc1 [Compound 476, 3,3-difluoro-N-(4-(hydroxycarbamoyl)benzyl)-N-(3-(trifluoromethyl)phenyl)azetidine-1-carboxamide]
[2]
  proliferation of the reactive T cells: excellent effect
[3]
  level of CTLA4 expression in the T cells (function of regulatory T cells): excellent effect

## O=C(NO)c1ccc(CN(C(=O)N2CCOCC2)c2cccc(F)c2)cc1 [Compound 530, N-(3-fluorophenyl)-N-(4-(hydroxycarbamoyl)benzyl)morpholine-4-carboxamide]
[1]; [10]
  level of TNFα secretion: drastically decreased
[1]; [11]
  level of TNFα secretion: excellent effect

## O=C(NO)c1ccc(CN(C(=O)N2CCOCC2)c2ccccn2)cc1 [Compound 280, N-(4-(hydroxycarbamoyl)benzyl)-N-(pyridine-2-yl)morpholine-4-carboxamide]
[2]
  proliferation of the reactive T cells: excellent effect
[3]
  level of CTLA4 expression in the T cells (function of regulatory T cells): excellent effect

## O=C(NO)c1ccc(CN(C(=O)N2CCOCC2)c2cccc(C(F)(F)F)c2)cc1 [Compound 374, N-(4-(hydroxycarbamoyl)benzyl)-N-(3-(trifluoromethyl)phenyl)morpholine-4-carboxamide]
[1]; [12]
  level of TNFα secretion: remarkably decreased down to a level at which no inflammatory response was induced by means of the LPS
[1]; [11]
  level of TNFα secretion: excellent effect
[2]
  proliferation of the reactive T cells: excellent effect
[3]
  level of CTLA4 expression in the T cells (function of regulatory T cells): excellent effect
[4]; EAU mouse, 0.3% eye drop twice a day from Day 11, Day 21, scale Grade 0-4
  clinical grade of uveitis: ≤ 0.5 Grade
[4]; animal model for an induced uveitis disease, summary (FIGS. 4 to 6)
  decreasing a uveitis lesion: excellent effect
[5]
  inflammatory lesions in retina tissues (H&E): significantly decreased
[6]; [13]
  B220 (B cell marker) in retina: did not show an obvious change
  CD3(+) cell (T cell marker) in retina: significantly decreased to a similar level to that of a normal mouse
  infiltration of CD4(+) immune cells into a retina tissue: clearly decreased and remained only under the retina
[6]; animal model for an induced uveitis disease, summary (FIGS. 7 to 10)
  inhibiting an infiltration of inflammatory cells: excellent effect
[7]; animal model for an induced uveitis disease, summary (FIG. 11)
  inhibiting an expression of inflammatory cytokines in a spleen: excellent effect
[7]; [14]
  level of IL-17A: significantly decreased
  level of INF-γ: significantly decreased
[8]; animal model for an induced uveitis disease, summary (FIG. 12)
  inhibiting an expression of inflammatory cytokines in inflammation regions: excellent effect
[8]; eye drop administration group
  expression level of HDAC6: significantly decreased and recovered to the level of the normal mouse
  expression level of IL-1β: significantly decreased and recovered to the level of the normal mouse
  expression level of IL-17: significantly decreased and recovered to the level of the normal mouse
  expression level of INF-γ: significantly decreased and recovered to the level of the normal mouse
  expression level of TNF-α: significantly decreased and recovered to the level of the normal mouse
[8]; [15]
  expression level of HDAC6: significantly decreased and recovered to the level of the normal mouse
  expression level of IL-1β: significantly decreased and recovered to the level of the normal mouse
  expression level of IL-17: significantly decreased and recovered to the level of the normal mouse
  expression level of INF-γ: significantly decreased and recovered to the level of the normal mouse
  expression level of TNF-α: significantly decreased and recovered to the level of the normal mouse
[9]; animal model for an induced uveitis disease, summary (FIGS. 13 to 21)
  decreasing the number of immune cells in a retina and a lymph node: excellent effect
[9]; [16]
  number of IL-IP(+) cells: significantly decreased
  number of INF-γ(+)/CD4(+) cells: significantly decreased
[9]; lymph node tissues, i.p. administration group
  number of INF-γ(+)/CD4(+) cells: significantly decreased
[9]; [17]
  number of CD11b(+) cells: decreased
  number of CD19(+) cells: decreased
  number of F4/80(+) cells: decreased
[9]; [18]
  number of IL-IP(+) cells: significantly decreased
  number of INF-γ(+)/CD4(+) cells: significantly decreased
[9]; retina tissues, i.p. administration group, 10 mg/kg
  number of INF-γ(+)/CD4(+) cells: significantly decreased
[9]; retina tissues, i.p. administration group, 30 mg/kg
  number of INF-γ(+)/CD4(+) cells: significantly decreased

## CN1CCN(C(=O)N(Cc2ccc(C(=O)NO)cc2)c2ccc(F)cc2F)CC1 [Compound 416, N-(2,4-difluorophenyl)-N-(4-(hydroxycarbamoyl)benzyl)-4-methylpiperazine-1-carboxamide]
[2]
  proliferation of the reactive T cells: excellent effect
[3]
  level of CTLA4 expression in the T cells (function of regulatory T cells): excellent effect

## O=C(NO)c1ccc(CN(C(=O)N2CCOCC2)c2cccc(Br)c2)cc1 [Compound 255, N-(3-bromophenyl)-N-(4-(hydroxycarbamoyl)benzyl)morpholine-4-carboxamide]
[2]
  proliferation of the reactive T cells: excellent effect
[3]
  level of CTLA4 expression in the T cells (function of regulatory T cells): excellent effect
[3]; treated at 1000 nM, data analysis not performed
  cytotoxicity: severe cytotoxicity
